Marks after values point to notes of the source that are not given here. One block for each compound: values may come before it.
Tests used:
[1] = pH recovery of calcium carbonate slurry after lowering to pH 8 with CO2 enriched air (Example 1); format: physicochemical
From the text: The pH of the aqueous suspension may be measured using any conventional pH meter. […] This may be carried out using either a manual or automatic method, depending on the type of instrument being used.
(§1) The pH of the aqueous suspension may be measured by: • mixing a sample of the aqueous suspension to ensure homogeneity, by using either the bench stirrer or the rotating rollers, or by shaking the sample container and contents vigorously; • measuring the temperature of the sample and adjusting the temperature to 22° C.; • removing the pH electrode from its deionised water storage solution and immersing it carefully into the test slurry; • waiting until a stable pH reading is obtained; • recording the pH value of the undisturbed slurry. Viscosity
1 kg samples of a calcium carbonate slurry having 78 wt % solids and 60% of particles less than 2 μm in size (measured using a micrometrics sedigraph) were adjusted to […] at room temperature using 2-amino-2-methyl-1-propanol (AMP) or dimethylethanolamine (DMEA). The control sample was adjusted to pH 10 using dilute sodium hydroxide solution. The solids content of the samples was adjusted using deionised water.
The pH of each slurry was lowered to pH 8 by aspirating the sample with carbon dioxide (CO2) enriched air (2%) using a flow rate of 5 mL/min. When pH 8 had been reached, aspiration of the sample was stopped.
Recovery of the sample pH was then monitored and recorded over subsequent days using the Mettler Toledo FE20 pH meter as described above in the detailed description.

[2] = pH of calcium carbonate slurry after sequential 50 mg/kg additions (Example 2); format: physicochemical; conditions: for δ pH: change per 50 mg/kg aliquot
From the text: The pH of the aqueous suspension may be measured using any conventional pH meter. For example, the pH of the aqueous suspension may be measured using the Digital pH meter “Mettler Toledo FE20”, which has been calibrated in accordance with the manufacturer's instructions, using buffer solutions with nominal values of 4, 7 and 9. This may be carried out using either a manual or automatic method, depending on the type of instrument being used.
as §1
50 mg/kg aliquots of either AMP or DMEA were sequentially added to 250 g calcium carbonate slurry samples having 78 wt % solids and 60% of particles less than 2 μm in size (measured using a micrometrics sedigraph). In this context, 50 mg/kg means that 50 mg of AMP or DMEA was added per kg of dry inorganic particulate material in the aqueous suspension. The pH of the samples was measured after stirring immediately after each 50 mg/kg addition.

[3] = system: microbes in contaminated calcium carbonate slurry; assay: Total viable count of contaminated calcium carbonate slurry (Examples 3-5); format: cell-based, bacteria; conditions: for level of microbes compared with samples comprising no DMEA: 400, 500 and 600 ppm DMEA alone
Experimental: The microbe level, for example the total viable count, of the aqueous suspension may be measured using growth medium such as Petrifilm or dipslides. The material under test (for example the aqueous suspension of inorganic particulate material) is diluted with a buffer solution and a measured amount of the dilution is placed on a growth medium (for example, Petrifilm). This is incubated for 48 hours, after which time the number of colonies of bacteria is counted. Each colony has developed from one single bacterium or colony forming unit (cfu). Therefore, the number of colonies, multiplied by the dilution factor, is equivalent to the number of original colony forming units per gram or millilitre of slurry.
For example, the total viable count of an aqueous suspension may be measured by: • mixing a sample of aqueous suspension of inorganic particulate material thoroughly by shaking its container vigorously; • measuring the required weight or volume of the sample. For example, if the results are to be recorded as colony forming units per g (cfu/g), a container containing the buffer solution is placed on the balance and the balance is set to zero. Approximately 1 g of slurry is weighed into the container and its weight is recorded to within 0.1 g. The contents of the container are mixed by shaking it vigorously. If the results are to be recorded as colony forming units per ml (cfu/ml), 1 ml of slurry may be added to a container containing the buffer solution. The contents of the container are mixed by shaking it vigorously; • distributing the diluted sample evenly on the growth medium. The plate may be left undisturbed for at least one minute to allow the gel to solidify; • incubating the contents of the growth medium (for example Petrifilm plates) for 48 hours±2 hours at 30° C.±2° C.; • counting the number of colonies on the growth medium (for example Petrifilm); • calculating the total viable count of the sample by multiplying the number of colonies on the growth medium (for example Petrifilm) by the dilution factor and dividing this by the weight or volume of the sample which was plated on the growth medium. For example:
(§2) Samples of a contaminated calcium carbonate slurry having 78 wt % solids and 60% of particles less than 2 μm in size (measured using a micrometrics sedigraph) comprising various amounts of the biocide glutaraldehyde, and DMEA were prepared. The total viable count (cfu/ml) of each sample was measured after 0, 1 and 7 days by the method described above in the detailed description.
Samples of a contaminated calcium carbonate slurry having 78 wt % solids and 60% of particles less than 2 μm in size (measured using a micrometrics sedigraph) comprising various amounts of DMEA and the biocides benzisothiazolinone (BIT) and methylisothiazolinone (MIT) were prepared. The total viable count (cfu/ml) of each sample was measured after 0, 1 and 7 days by the method described above in the detailed description.
as §2, with “of” for “of the biocide glutaraldehyde, and”

[4] = day 0.5, lowered to pH 8 with CO2
[5] = total 50 mg/kg of chemical added
[6] = total 100 mg/kg of chemical added
[7] = total 150 mg/kg of chemical added
[8] = total 200 mg/kg of chemical added
[9] = total 250 mg/kg of chemical added
[10] = total 300 mg/kg of chemical added
[11] = total 350 mg/kg of chemical added
[12] = total 400 mg/kg of chemical added
[13] = total 450 mg/kg of chemical added
[14] = total 500 mg/kg of chemical added
[15] = total 550 mg/kg of chemical added
[16] = total 600 mg/kg of chemical added

pH of sample ([1]; day 0, before CO2 aspiration): 9.50
δ pH ([1]; day 0.5): 0.00
pH of sample [1, 4]: 8.00
pH of sample ([1]; day 1): 8.16
δ pH ([1]; day 1): 0.13
pH of sample ([1]; day 2): 8.26
δ pH ([1]; day 2): 0.23
pH of sample ([1]; day 16): 8.46
δ pH ([1]; day 16): 0.43
pH of sample ([1]; day 20): 8.50
δ pH ([1]; day 20): 0.47
pH of sample ([1]; day 23): 8.52
δ pH ([1]; day 23): 0.49
pH of sample ([1]; day 24): 8.58
δ pH ([1]; day 24): 0.55
pH of sample ([1]; day 27): 8.61
δ pH ([1]; day 27): 0.58
pH of sample ([1]; day 28): 8.66
δ pH ([1]; day 28): 0.66
δ pH ([2]; total 50 mg/kg added): 0.27
pH of sample [2, 5]: 9.28
δ pH ([2]; total 100 mg/kg added): 0.21
pH of sample [2, 6]: 9.49
δ pH ([2]; total 150 mg/kg added): 0.15
pH of sample [2, 7]: 9.64
δ pH ([2]; total 200 mg/kg added): 0.14
pH of sample [2, 8]: 9.78
δ pH ([2]; total 250 mg/kg added): 0.14
pH of sample [2, 9]: 9.92
δ pH ([2]; total 300 mg/kg added): 0.09
pH of sample [2, 10]: 10.01
δ pH ([2]; total 350 mg/kg added): 0.07
pH of sample [2, 11]: 10.08
δ pH ([2]; total 400 mg/kg added): 0.07
pH of sample [2, 12]: 10.15
δ pH ([2]; total 450 mg/kg added): 0.07
pH of sample [2, 13]: 10.22
δ pH ([2]; total 500 mg/kg added): 0.05
pH of sample [2, 14]: 10.27
δ pH ([2]; total 550 mg/kg added): 0.05
pH of sample [2, 15]: 10.32
δ pH ([2]; total 600 mg/kg added): 0.05
pH of sample [2, 16]: 10.37
Compound: CC(C)(N)CO [AMP, 2-amino-2-methyl-1-propanol, reference compound]

Compound: CN(C)CCO [DMEA, Dimethylethanolamine]
pH of sample ([1]; day 0, before CO2 aspiration): 10.00
δ pH ([1]; day 0.5): 0.00
pH of sample [1, 4]: 8.00
pH of sample ([1]; day 1): 8.22
δ pH ([1]; day 1): 0.22
pH of sample ([1]; day 2): 8.28
δ pH ([1]; day 2): 0.28
pH of sample ([1]; day 3): 8.35
δ pH ([1]; day 3): 0.35
pH of sample ([1]; day 4): 8.43
δ pH ([1]; day 4): 0.43
pH of sample ([1]; day 9): 8.52
δ pH ([1]; day 9): 0.52
pH of sample ([1]; day 11): 8.55
δ pH ([1]; day 11): 0.55
pH of sample ([1]; day 16): 8.58
δ pH ([1]; day 16): 0.58
pH of sample ([1]; day 20): 8.60
δ pH ([1]; day 20): 0.60
pH of sample ([1]; day 23): 8.64
δ pH ([1]; day 23): 0.64
pH of sample ([1]; day 24): 8.65
δ pH ([1]; day 24): 0.65
pH of sample ([1]; day 27): 8.70
δ pH ([1]; day 27): 0.70
pH of sample ([1]; day 28): 8.79
δ pH ([1]; day 28): 0.79
pH recovery compared with sample comprising AMP and control sample ([1]; recovery from pH 8): increased more rapidly and to a higher level
pH the sample increased to ([1]; recovery from pH 8, end of monitoring, control sample 8.3): 8.8
δ pH ([2]; total 50 mg/kg added): 0.25
pH of sample [2, 5]: 9.19
δ pH ([2]; total 100 mg/kg added): 0.17
pH of sample [2, 6]: 9.36
δ pH ([2]; total 150 mg/kg added): 0.13
pH of sample [2, 7]: 9.49
δ pH ([2]; total 200 mg/kg added): 0.11
pH of sample [2, 8]: 9.60
δ pH ([2]; total 250 mg/kg added): 0.07
pH of sample [2, 9]: 9.67
δ pH ([2]; total 300 mg/kg added): 0.07
pH of sample [2, 10]: 9.74
δ pH ([2]; total 350 mg/kg added): 0.06
pH of sample [2, 11]: 9.80
δ pH ([2]; total 400 mg/kg added): 0.05
pH of sample [2, 12]: 9.85
δ pH ([2]; total 450 mg/kg added): 0.05
pH of sample [2, 13]: 9.90
δ pH ([2]; total 500 mg/kg added): 0.05
pH of sample [2, 14]: 9.95
δ pH ([2]; total 550 mg/kg added): 0.04
pH of sample [2, 15]: 9.99
δ pH ([2]; total 600 mg/kg added): 0.02
pH of sample [2, 16]: 10.01
level of microbes compared with samples comprising no DMEA ([3]; after 0 days): slightly reduced the level of microbes
level of microbes compared with samples comprising no DMEA ([3]; after 1 day and 7 days): further reduced the level of microbes
Total Viable Count (cfu/ml) of sample as 10^x, x ([3]; 400 ppm DMEA in sample, 0 days after preparation): 5 cfu/ml as 10^x
Total Viable Count (cfu/ml) of sample as 10^x, x ([3]; 400 ppm DMEA in sample, 1 day after preparation): 4 cfu/ml as 10^x
Total Viable Count (cfu/ml) of sample as 10^x, x ([3]; 400 ppm DMEA in sample, 7 days after preparation): 0.1 cfu/ml as 10^x
Total Viable Count (cfu/ml) of sample as 10^x, x ([3]; 500 ppm DMEA in sample, 0 days after preparation): 5 cfu/ml as 10^x
Total Viable Count (cfu/ml) of sample as 10^x, x ([3]; 500 ppm DMEA in sample, 1 day after preparation): 4 cfu/ml as 10^x
Total Viable Count (cfu/ml) of sample as 10^x, x ([3]; 500 ppm DMEA in sample, 7 days after preparation): 0.1 cfu/ml as 10^x
Total Viable Count (cfu/ml) of sample as 10^x, x ([3]; 600 ppm DMEA in sample, 0 days after preparation): 5 cfu/ml as 10^x
Total Viable Count (cfu/ml) of sample as 10^x, x ([3]; 600 ppm DMEA in sample, 1 day after preparation): 4 cfu/ml as 10^x
Total Viable Count (cfu/ml) of sample as 10^x, x ([3]; 600 ppm DMEA in sample, 7 days after preparation): 0.1 cfu/ml as 10^x
reducing total viable count compared with glutaraldehyde alone ([3]; DMEA in combination with 50, 100 or 400 ppm glutaraldehyde, after 1 and 7 days): at least as effective
total viable count compared with glutaraldehyde alone ([3]; DMEA in combination with 50 ppm glutaraldehyde, after 0 days): lower total viable count
total viable count compared with BIT/MIT but no DMEA ([3]; DMEA in combination with 81, 162 or 650 ppm BIT/MIT, after 1 day and 7 days): lower total viable count

— US10590276B2, “Aqueous suspension of inorganic particulate material” (ImerTech SAS, priority 2013, dated 2020)
